Measurements as given in patent US4017607A.
In brackets after ≈: the same amount, converted by molar mass. Read-outs that look alike come from different tables or passages of the source.

Key:
[1] = tested on: Staphylococcus aureus 209P; assay: Minimum inhibitory concentration, serial dilution method, Brain Heart Infusion broth; format: cell-based; settings: read-out: Minimum Inhibitory Concentration
[2] = tested on: Staphylococcus aureus Terajima; assay: Minimum inhibitory concentration, serial dilution method; format: cell-based; settings: read-out: Minimum Inhibitory Concentration
[3] = tested on: Staphylococcus aureus Smith; assay: as above; format: cell-based; settings: Staphylococcus aureus Smith; 24 hours, 37° C; read-out: Minimum Inhibitory Concentration
[4] = tested on: Staphylococcus albus 1200A; assay: as above; format: cell-based; settings: read-out: Minimum Inhibitory Concentration
[5] = tested on: Streptococcus faecalis ATCC 8043; assay: as above; format: cell-based; settings: Enterococcus faecalis, ATCC8043; Streptococcus faecalis ATCC 8043; 24 hours, 37° C; read-out: Minimum Inhibitory Concentration
[6] = tested on: Streptococcus hemolyticus Cook; assay: as above; format: cell-based; settings: Streptococcus pyogenes; Streptococcus hemolyticus Cook; 24 hours, 37° C; read-out: Minimum Inhibitory Concentration
[7] = tested on: Streptococcus hemolyticus D-90; assay: as above; format: cell-based; settings: Streptococcus pyogenes, read-out: Minimum Inhibitory Concentration
[8] = tested on: Streptococcus pyogenes D-58; assay: as above; format: cell-based; settings: D58; Streptococcus pyogenes D-58; 24 hours, 37° C; read-out: Minimum Inhibitory Concentration
[9] = tested on: Diplococcus pneumoniae Type I; assay: as above; format: cell-based; settings: Streptococcus pneumoniae; Diplococcus pneumoniae Type I; 24 hours, 37° C; read-out: Minimum Inhibitory Concentration
[10] = tested on: Diplococcus pneumoniae Type III; assay: as above; format: cell-based; settings: Streptococcus pneumoniae; Diplococcus pneumoniae Type III; 24 hours, 37° C; read-out: Minimum Inhibitory Concentration
[11] = tested on: Bacillus subtilis PCI 219; assay: as above; format: cell-based; settings: PCI219; Bacillus subtilis PCI 219; 24 hours, 37° C; read-out: Minimum Inhibitory Concentration
[12] = tested on: Bacillus subtilis ATCC 6633; assay: as above; format: cell-based; settings: ATCC6633; Bacillus subtilis ATCC 6633; 24 hours, 37° C; read-out: Minimum Inhibitory Concentration
[13] = tested on: Bacillus anthracis No. 119; assay: microbe, parasite or virus in culture; format: cell-based; settings: NO.119, 24 h, read-out: Minimum Inhibitory Concentration
[14] = tested on: Corynebacterium diphtheriae Type gravis; assay: Minimum inhibitory concentration, serial dilution method; format: cell-based; settings: Corynebacterium diphtheriae Type gravis; 24 hours, 37° C; read-out: Minimum Inhibitory Concentration
[15] = tested on: Corynebacterium diphtheriae Type intermedius; assay: as above; format: cell-based; settings: Corynebacterium diphtheriae Type intermedius; 24 hours, 37° C; read-out: Minimum Inhibitory Concentration
Sarcina lutea = assay: as above; format: cell-based; settings: Micrococcus luteus; Sarcina lutea; 24 hours, 37° C; read-out: Minimum Inhibitory Concentration
[16] = tested on: Staphylococcus aureus 209P; settings: 7th day, 10 mice per group
[17] = tested on: gram-negative and gram-positive bacteria; assay: Antibacterial activity (in words); format: cell-based
[18] = Staphylococcus aureus 209P, 24 hours, 37° C
[19] = Staphylococcus aureus Terajima, 24 hours, 37° C
[20] = Staphylococcus albus 1200A, 24 hours, 37° C
[21] = D90, Streptococcus hemolyticus D-90, 24 hours, 37° C

Row | Compound | MIC [3] [µg/mL] | MIC [5] [µg/mL] | MIC [6] [µg/mL] | MIC [8] [µg/mL] | MIC [9] [µg/mL] | MIC [10] [µg/mL] | MIC [11] [µg/mL] | MIC [12] [µg/mL] | MIC [13] [µg/mL] | MIC [14] [µg/mL] | MIC [15] [µg/mL] | MIC (Sarcina lutea) [µg/mL] | Rate of surviving mice in each group of mice ([16]; 100 mg/kg oral) | Rate of surviving mice in each group of mice ([16]; 200 mg/kg oral) | antibacterial activity [17] | MIC [1, 18] [µg/mL] | MIC [2, 19] [µg/mL] | MIC [4, 20] [µg/mL] | MIC [7, 21] [µg/mL] | also measured
1 | CCC(=O)OC1CC(=O)OC(C)CC=CC=CC(OC(C)=O)C(C)CC(CC=O)C(OC2OC(C)C(OC3CC(C)(O)C(OC(=O)CC)C(C)O3)C(N(C)C)C2OC(C)=O)C1OC (stereo not drawn) [9,2'-di-acetyl SF-837 substance, reference compound] | 0.39 (≈ 0.434 µM) | 3.12 (≈ 3.47 µM) | 0.19 (≈ 0.212 µM) | 0.19 (≈ 0.212 µM) | 0.09 (≈ 0.1 µM) | 0.09 (≈ 0.1 µM) | 0.78 (≈ 0.869 µM) | 3.12 (≈ 3.47 µM) | 1.56 (≈ 1.74 µM) | 0.39 (≈ 0.434 µM) | 0.19 (≈ 0.212 µM) | 0.19 (≈ 0.212 µM) | 0/10 | 6/10 | – | – | – | – | – | MIC ([1]; Staphylococcus aureus, 209P, 24 h): 1.56 µg/mL (≈ 1.74 µM); MIC ([2]; Staphylococcus aureus, 24 h): 1.56 µg/mL (≈ 1.74 µM); MIC ([4]; Staphylococcus, 1200A, 24 h): 1.56 µg/mL (≈ 1.74 µM); MIC ([7]; D90, 24 h): 1.56 µg/mL (≈ 1.74 µM)
2 | CCC(=O)OC1CC(=O)OC(C)CC=CC=CC(OC(C)=O)C(C)CC(C=COC(C)=O)C(OC2OC(C)C(OC3CC(C)(OC(=O)CC)C(OC(C)=O)C(C)O3)C(N(C)C)C2OC(C)=O)C1OC (stereo not drawn) | – | – | – | – | – | – | – | – | – | – | – | – | – | – | substantially no antibacterial activity | – | – | – | – | –
3 | CCC(=O)OC1CC(=O)OC(C)CC=CC=CC(OC(C)=O)C(C)CC(C=COC(C)=O)C(OC2OC(C)C(OC3CC(C)(OC(=O)CC)C(OC(C)=O)C(C)O3)C(N(C)C)C2O)C1OC (stereo not drawn) | – | – | – | – | – | – | – | – | – | – | – | – | – | – | no antibacterial activity | – | – | – | – | –
4 | CCC(=O)OC1C=CC=CCC(C)OC(=O)CC(OC(=O)CC)C(OC)C(OC2OC(C)C(OC3CC(C)(OC(=O)CC)C(OC(=O)CC)C(C)O3)C(N(C)C)C2O)C(CC=O)CC1C (stereo not drawn) [Compound No. 7] | 0.78 (≈ 0.842 µM) | 0.78 (≈ 0.842 µM) | 0.19 (≈ 0.205 µM) | 0.09 (≈ 0.0972 µM) | 0.19 (≈ 0.205 µM) | 0.09 (≈ 0.0972 µM) | 0.78 (≈ 0.842 µM) | 1.56 (≈ 1.68 µM) | 0.78 (≈ 0.842 µM) | 0.19 (≈ 0.205 µM) | 0.19 (≈ 0.205 µM) | 0.09 (≈ 0.0972 µM) | 5/10 | 10/10 | – | 0.78 (≈ 0.842 µM) | 1.56 (≈ 1.68 µM) | 1.56 (≈ 1.68 µM) | 1.56 (≈ 1.68 µM) | –
5 | CCC(=O)OC1CC(=O)OC(C)CC=CC=CC(OC(C)=O)C(C)CC(CC=O)C(OC2OC(C)C(OC3CC(C)(OC(=O)CC)C(OC(C)=O)C(C)O3)C(N(C)C)C2O)C1OC (stereo not drawn) [Compound No. 1] | 0.39 (≈ 0.434 µM) | 0.78 (≈ 0.869 µM) | 0.19 (≈ 0.212 µM) | 0.19 (≈ 0.212 µM) | 0.09 (≈ 0.1 µM) | 0.09 (≈ 0.1 µM) | 0.78 (≈ 0.869 µM) | 1.56 (≈ 1.74 µM) | 0.78 (≈ 0.869 µM) | 0.19 (≈ 0.212 µM) | 0.19 (≈ 0.212 µM) | 0.09 (≈ 0.1 µM) | 6/10 | 10/10 | – | 1.56 (≈ 1.74 µM) | 3.12 (≈ 3.47 µM) | 1.56 (≈ 1.74 µM) | 0.78 (≈ 0.869 µM) | –
6 | 9,2' -di-acetyl-18,3" -di-propionyl SF-837 substance | – | – | – | – | – | – | – | – | – | – | – | – | – | – | observed | – | – | – | – | –
